This note sets out measurements from ChEMBL document CHEMBL1909294, “Translating clinical findings into knowledge in drug safety evaluation--drug induced liver injury prediction system (DILIps)” (PLoS Comput Biol, 2011).

SMILES strings stand for the structures.

Series [1] has as its system Hepatotoxicity.
For series [2], the system named is Hepatotoxicity. This is another data set of the same source.
Series [3] relates to Hepatotoxicity. This is another data set of the same source.
The subject of series [4] is Hepatotoxicity. This is another data set of the same source.
The subject of series [5] is Hepatotoxicity. The source holds these as a separate data set.
In series [6] the test system is Hepatotoxicity. The source holds these as a separate data set.
For series [7], the system named is Hepatotoxicity. This is another data set of the same source.
Series [8] deals with Hepatotoxicity. The source holds these as a separate data set.
Series [9] has as its system Hepatotoxicity. This is another data set of the same source.
In series [10] the test system is Hepatotoxicity. This is another data set of the same source.
Series [11] relates to Hepatotoxicity. This is another data set of the same source.
The test system of series [12] is Hepatotoxicity. The source holds these as a separate data set.
In series [13] the test system is Hepatotoxicity. The source holds these as a separate data set.
The test system of series [14] is Hepatotoxicity. This is another data set of the same source.
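Wherever HepSE Combined Scores is given: combined hepatic side effect score as listed in the training data of the Drug Induced Liver Injury Prediction System (DILIps).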
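Wherever HepSE bilirubinemia is given: bilirubinemia hepatic side effect score drawn from the DILIps training data, a prediction system for drug-induced liver injury; call rule not given here.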
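Wherever HepSE cholecystitis is given: Cholecystitis-related hepatic side effect score drawn from the DILIps (drug-induced liver injury prediction) training data set; call rule not given here.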
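Wherever HepSE cholelithiasis is given: hepatic side effect score for cholelithiasis, drawn from the DILIps training data for predicting drug-induced liver injury; call rule not given here.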
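Wherever HepSE cirrhosis is given: cirrhosis hepatic side effect score taken from the DILIps (drug-induced liver injury prediction) training set; call rule not given here.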
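Wherever HepSE elevated liver function tests is given: hepatic side effect score for raised liver function tests, as recorded in the DILIps training set used for predicting drug-induced liver injury.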
Wherever HepSE hepatic failure is given: call rule not given here.
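Wherever HepSE hepatic necrosis is given: score of hepatic side effects for hepatic necrosis, drawn from the training data of DILIps, a prediction system for drug-induced liver injury; call rule not given here.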
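Wherever HepSE hepatitis is given: Hepatitis-related hepatic side effect score taken from the training data of DILIps, a prediction system for drug-induced liver injury; call rule not given here.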
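Wherever HepSE hepatomegaly is given: hepatic side effect score for hepatomegaly, taken from the training set of the DILIps drug-induced liver injury prediction system; call rule not given here.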
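Wherever HepSE jaundice is given: Jaundice-related hepatic side-effect score drawn from the training data of the DILIps (drug-induced liver injury prediction system); call rule not given here.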
Wherever HepSE liver disease is given: call rule not given here.
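Wherever HepSE liver fatty is given: hepatic side effect score for fatty liver, taken from the DILIps training set for predicting drug-induced liver injury; call rule not given here.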
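Wherever HepSE liver function tests abnormal is given: hepatic side effect score taken from the DILIps (drug-induced liver injury prediction system) training data, here covering abnormal liver function test findings.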

The compound `COCC(=O)Nc1c(I)c(C(=O)NCC(O)CO)c(I)c(C(=O)N(C)CC(O)CO)c1I` (stereo not given) [IOPROMIDE] returned a HepSE_bilirubinemia in the series with Hepatotoxicity [1] of 0. Also, in the series on Hepatotoxicity [2], the HepSE_hepatomegaly was 0. Further, the HepSE_liver fatty with Hepatotoxicity [3] came out at 0. This compound gave a HepSE_liver disease in the series on Hepatotoxicity [4] of 0. Besides, the “HepSE_elevated liver function tests” value with Hepatotoxicity [5] stood at 0. Besides, in the series with Hepatotoxicity [6], the HepSE_jaundice turned out to be 0. In addition, the HepSE_hepatitis in the series with Hepatotoxicity [7] is 0. Further, the HepSE_cholelithiasis in the series with Hepatotoxicity [8] is on record as 0. This compound also gave a HepSE_hepatic failure in the series with Hepatotoxicity [9] of 0. This compound yielded a HepSE_hepatic necrosis in the series with Hepatotoxicity [10] of 0. For the same compound, in the series with Hepatotoxicity [11], the HepSE_cholecystitis is 0. For the same compound, the HepSE_cirrhosis in the series with Hepatotoxicity [12] is recorded as 0. Besides, in the series with Hepatotoxicity [13], the “HepSE_Combined Scores” value came to 0. Moreover, the “HepSE_liver function tests abnormal” value in the series with Hepatotoxicity [14] turned out to be 0.

`COc1ccc(C[C@@H]2c3cc(OC)c(OC)cc3CC[N@+]2(C)CCC(=O)OCCCCCOC(=O)CC[N@@+]2(C)CCc3cc(OC)c(OC)cc3[C@H]2Cc2ccc(OC)c(OC)c2)cc1OC` gave a HepSE_bilirubinemia in the series with Hepatotoxicity [1] of 0. In addition, in the series on Hepatotoxicity [2], the HepSE_hepatomegaly came out at 0. In the series with Hepatotoxicity [3], this compound displayed a HepSE_liver fatty of 0. Also, the HepSE_liver disease in the series on Hepatotoxicity [4] was determined as 0. Further, the “HepSE_elevated liver function tests” value in the series with Hepatotoxicity [5] was found to be 0. In the series on Hepatotoxicity [6], this compound returned a HepSE_jaundice of 0. The HepSE_hepatitis in the series on Hepatotoxicity [7] worked out at 0. Further, the HepSE_cholelithiasis in the series on Hepatotoxicity [8] was determined as 0. In the series on Hepatotoxicity [9], this compound had a HepSE_hepatic failure of 0. In the series with Hepatotoxicity [10], this compound gave a HepSE_hepatic necrosis of 0. Besides, the HepSE_cholecystitis with Hepatotoxicity [11] was determined as 0. For the same compound, the HepSE_cirrhosis with Hepatotoxicity [12] is reported as 0. The “HepSE_Combined Scores” value in the series on Hepatotoxicity [13] stood at 0. In addition, the “HepSE_liver function tests abnormal” value with Hepatotoxicity [14] was determined as 0.

For `OC(CCN1CCCCC1)(c1ccccc1)C1CCCCC1` (stereo not given) [TRIHEXYPHENIDYL], the HepSE_bilirubinemia with Hepatotoxicity [1] (Liver) was found to be 0. The compound also registered a HepSE_hepatomegaly in the series on Hepatotoxicity [2] (Liver) of 0. In the series on Hepatotoxicity [3] (Liver), this compound had a HepSE_liver fatty of 0. This compound also had a HepSE_liver disease in the series on Hepatotoxicity [4] (Liver) of 0. Besides, the “HepSE_elevated liver function tests” value in the series with Hepatotoxicity [5] (Liver) was found to be 0. In the series on Hepatotoxicity [6] (Liver), this compound had a HepSE_jaundice of 0. The compound also registered a HepSE_hepatitis with Hepatotoxicity [7] (Liver) of 0. In addition, in the series with Hepatotoxicity [8] (Liver), the HepSE_cholelithiasis turned out to be 0. Also, the HepSE_hepatic failure with Hepatotoxicity [9] (Liver) amounted to 0. In the series with Hepatotoxicity [10] (Liver), this compound gave a HepSE_hepatic necrosis of 0. Also, in the series with Hepatotoxicity [11] (Liver), the HepSE_cholecystitis was 0. Moreover, in the series on Hepatotoxicity [12] (Liver), the HepSE_cirrhosis came to 0. Moreover, in the series on Hepatotoxicity [13] (Liver), the “HepSE_Combined Scores” value came out at 0. For the same compound, the “HepSE_liver function tests abnormal” value in the series with Hepatotoxicity [14] (Liver) stood at 0.

In the case of `CC(=O)O[C@@]12CO[C@@H]1C[C@H](O)[C@@]1(C)C(=O)[C@H](O)C3=C(C)[C@@H](OC(=O)[C@H](O)[C@@H](NC(=O)OC(C)(C)C)c4ccccc4)C[C@@](O)([C@@H](OC(=O)c4ccccc4)[C@H]21)C3(C)C.O.O.O` [DOCETAXEL], the HepSE_bilirubinemia with Hepatotoxicity [1] is given as 1. The HepSE_hepatomegaly with Hepatotoxicity [2] is 0. In addition, the HepSE_liver fatty in the series with Hepatotoxicity [3] was found to be 0. The same compound showed a HepSE_liver disease with Hepatotoxicity [4] of 0. In addition, in the series on Hepatotoxicity [5], the “HepSE_elevated liver function tests” value is listed as 1. The compound also displayed a HepSE_jaundice in the series with Hepatotoxicity [6] of 1. The HepSE_hepatitis with Hepatotoxicity [7] turned out to be 1. The HepSE_cholelithiasis in the series with Hepatotoxicity [8] is recorded as 0. Moreover, the HepSE_hepatic failure in the series with Hepatotoxicity [9] is reported as 1. The same compound gave a HepSE_hepatic necrosis in the series on Hepatotoxicity [10] of 0. The compound also registered a HepSE_cholecystitis in the series on Hepatotoxicity [11] of 0. In the series on Hepatotoxicity [12], this compound showed a HepSE_cirrhosis of 0. Further, in the series with Hepatotoxicity [13], the “HepSE_Combined Scores” value is 6. For the same compound, the “HepSE_liver function tests abnormal” value in the series on Hepatotoxicity [14] is listed as 1.

With `Clc1ccc(CCC(Cn2ccnc2)Sc2c(Cl)cccc2Cl)cc1` (stereo not given) [BUTOCONAZOLE], the HepSE_bilirubinemia in the series on Hepatotoxicity [1] amounted to 0. The same compound registered a HepSE_hepatomegaly in the series with Hepatotoxicity [2] of 0. This compound also had a HepSE_liver fatty with Hepatotoxicity [3] of 0. Moreover, the HepSE_liver disease in the series with Hepatotoxicity [4] was 0. For the same compound, the “HepSE_elevated liver function tests” value in the series on Hepatotoxicity [5] is 0. In the series with Hepatotoxicity [6], this compound returned a HepSE_jaundice of 0. Further, in the series with Hepatotoxicity [7], the HepSE_hepatitis was found to be 0. For the same compound, the HepSE_cholelithiasis in the series on Hepatotoxicity [8] is 0. The HepSE_hepatic failure with Hepatotoxicity [9] was 0. In the series on Hepatotoxicity [10], this compound gave a HepSE_hepatic necrosis of 0. Besides, in the series on Hepatotoxicity [11], the HepSE_cholecystitis is given as 0. The compound also came in with a HepSE_cirrhosis in the series on Hepatotoxicity [12] of 0. Besides, the “HepSE_Combined Scores” value in the series with Hepatotoxicity [13] is given as 0. In addition, the “HepSE_liver function tests abnormal” value in the series with Hepatotoxicity [14] is on record as 0.
